Results from patent publication US20040009973A1, “Novel potassium channels modulators” (4SC AG, priority 2002, published 2004).

Target: T1, BK potassium channel, cloned hSlo (α-hSlo and β-bSlo) in CHO cells (Homo sapiens, UniProt Q12791)
T1 construct: expressed in transfected cells; host or cells: CHO cells, permanently transfected
Experiment: Em-Assay: membrane potential with voltage sensitive dye DiBAC(4)3, fluorescence plate reader
Format: cell-based
Conditions: compound 50 μM; NS004 25 or 50 μM; hSlo transfected CHO cells; change in DiBAC(4)3 fluorescence intensity
Excerpt: The large conductance, voltage-dependent and Ca^2+-activated potassium channel BK is a potassium selective ion channel and belongs to the subfamily of KCa channels. Four BK alpha-subunits form a functional channel that can be regulated by intracellular Ca^2+ concentration, membrane voltage, and other mechanisms like phosphorylation states or beta subunits. To test the biological activity of the compounds, we applied two different techniques, a fluorescence based assay using a voltage sensitive dye (Em-Assay) as well as exploiting electrophysiological methods.
CHO cells permanently transfected with cloned hSlo (α-hSlo and β-bSlo), yielding typical BK potassium currents (Zhou et al., Pflügers Arch., 436: 725-734 (1998), were used for the evaluation of compound activity. Activation or inhibition of BK channels in these cells leads to a change of the electrochemical gradient causing a hyperpolarized or depolarised membrane potential, respectively.
To determine changes in the membrane potential of the cells we used the voltage sensitive dye DiBAC(4)3 (Molecular Probes) in a kinetic assay system using a fluorescent plate reader (Manning and Sontheimer, J. Neurosci, Meth., 91: 73-81 (1999). The anionic bis-oxonol DiBAC(4)3 is a voltage sensitive dye which partitions from the extracellular environment into the cell where it reversibly binds to intracellular proteins, a kinetic process depending on the membrane potential of the cell. At depolarised potentials (i.e. at a reduced K^+ efflux due to blocked K^+ channels) the dye accumulates in the cell leading to an increased fluorescence intensity, due to its increased fluorescence if bound to cellular proteins. At hyperpolarized potentials (i.e. at an increased K^+ efflux due to the opening of K^+ channels), the dye partitions out of the cell causing a decreased fluorescence intensity.
hSlo transfected CHO cells where maintained in DMEM supplemented with 10% FCS, 250 μg/ml Geneticin, 100 μg/ml Hygromycin, 1×HT-Supplement, and 1×Non-essential Amino Acids and cultured in a humidified CO2 incubator. After trypsination, cells where plated with a density of 5×10^4 cells per well on a clear 96-well plate and incubated for 24 h. Cells where washed once with PBS, once with PBS containing 20 mM HEPES (adjusted to pH 7.4 with NaOH) and 2 μM DIBAC(4)3 (DPBS-DiBAC solution). 180 μl of the dPBS-DiBAC solution was then added to the cells and the plate incubated for 30-60 min at 37° C. During this time the dye could partition into the cells and reach a certain steady-state distribution, depending on the resting membrane potential. Test and reference compounds were stored as DMSO stock solutions and diluted in dPBS-DiBAC solution to the desired concentration.
Fluorescence intensity (Ex.: 485 nm/Em.: 520 nm) of each well was detected in the plate reader (Fluostar, BMG) every 60 seconds. After recording the baseline fluorescence for 7 minutes, 20 μl test—and reference compounds were added and the fluorescence intensity was detected for additional 15 minutes. Background was subtracted, data values were normalized and expressed as a change in fluorescence intensity against time. The change in fluorescence intensity caused by the test compounds was evaluated, compared to the effect of the reference compound NS004, and the ratio was determined (see Table I).

T1 sequence (Q12791 1-1178 isoform Q12791-5): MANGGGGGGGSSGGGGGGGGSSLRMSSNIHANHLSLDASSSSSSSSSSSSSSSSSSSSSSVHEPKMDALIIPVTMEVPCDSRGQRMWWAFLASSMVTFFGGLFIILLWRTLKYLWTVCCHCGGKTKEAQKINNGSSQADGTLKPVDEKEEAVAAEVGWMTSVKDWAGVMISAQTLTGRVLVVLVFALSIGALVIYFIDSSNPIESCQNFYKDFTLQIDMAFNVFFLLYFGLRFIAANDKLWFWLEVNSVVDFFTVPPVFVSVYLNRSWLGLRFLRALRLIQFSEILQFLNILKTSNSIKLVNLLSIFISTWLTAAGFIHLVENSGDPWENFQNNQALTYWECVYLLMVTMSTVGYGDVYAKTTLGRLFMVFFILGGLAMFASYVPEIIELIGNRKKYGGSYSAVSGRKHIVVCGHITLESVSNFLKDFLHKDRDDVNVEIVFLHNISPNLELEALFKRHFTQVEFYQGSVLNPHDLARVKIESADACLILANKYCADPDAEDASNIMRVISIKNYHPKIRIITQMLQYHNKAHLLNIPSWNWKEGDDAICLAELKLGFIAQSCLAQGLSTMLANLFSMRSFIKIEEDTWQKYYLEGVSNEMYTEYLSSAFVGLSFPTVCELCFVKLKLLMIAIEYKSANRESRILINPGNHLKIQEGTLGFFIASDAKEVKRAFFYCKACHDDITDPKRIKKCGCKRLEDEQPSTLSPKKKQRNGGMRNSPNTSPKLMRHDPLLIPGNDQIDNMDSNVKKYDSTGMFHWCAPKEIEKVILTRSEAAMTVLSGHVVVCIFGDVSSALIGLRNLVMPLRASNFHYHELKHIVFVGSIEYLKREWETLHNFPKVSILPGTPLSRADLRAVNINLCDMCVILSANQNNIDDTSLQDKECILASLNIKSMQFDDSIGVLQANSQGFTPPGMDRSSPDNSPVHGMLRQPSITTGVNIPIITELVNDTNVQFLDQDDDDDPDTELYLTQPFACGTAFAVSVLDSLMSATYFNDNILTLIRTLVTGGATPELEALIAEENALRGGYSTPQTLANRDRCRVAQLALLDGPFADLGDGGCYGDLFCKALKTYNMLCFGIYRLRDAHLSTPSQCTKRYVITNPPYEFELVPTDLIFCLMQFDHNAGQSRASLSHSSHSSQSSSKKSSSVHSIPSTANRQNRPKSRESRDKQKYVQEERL
T1 sequence (Q28067 2-191 partner limits assumed): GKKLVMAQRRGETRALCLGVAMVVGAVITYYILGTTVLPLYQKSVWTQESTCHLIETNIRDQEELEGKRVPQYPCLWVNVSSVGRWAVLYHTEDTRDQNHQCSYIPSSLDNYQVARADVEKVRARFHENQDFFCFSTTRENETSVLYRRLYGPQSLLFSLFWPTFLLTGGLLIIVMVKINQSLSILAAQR

| SMILES | Em effect: ratio of the compound effect compared to the maximal effect of NS004 |
| --- | --- |
| O=[N+]([O-])c1ccc(CNc2cc(NCc3ccc([N+](=O)[O-])cc3)cc(C(F)(F)F)c2)cc1 [Compound 1] | + (0-1 = +) |
| FC(F)(F)c1cc(NCc2ccc(Br)cc2)cc(NCc2ccc(Br)cc2)c1 [Compound 2] | + (0-1 = +) |
| FC(F)(F)c1cc(NCc2cccc(Cl)c2)cc(NCc2cccc(Cl)c2)c1 [Compound 3] | + (0-1 = +) |
| FC(F)(F)c1cc(NCc2ccc(Br)cc2)cc(NCc2cccc(Cl)c2)c1 [Compound 5] | ++ (>1-1.5 = ++) |
| O=[N+]([O-])c1ccc(CNc2cccc(NCc3ccc([N+](=O)[O-])cc3)c2)cc1 [Compound 10] | + (0-1 = +) |
| Fc1cc(F)cc(CNc2cccc(NCc3cc(F)cc(F)c3)c2)c1 [Compound 27, N,N′-bis-(3,5-difluorobenzyl)-benzene-1,3-diamine] | ++ (>1-1.5 = ++) |
| Fc1ccc(CNc2cccc(NCc3ccc(F)cc3F)c2)c(F)c1 [Compound 28, N,N′-bis-(2,4-difluorobenzyl)-benzene-1,3-diamine] | ++ (>1-1.5 = ++) |
| Fc1cccc(Cl)c1CNc1cccc(NCc2c(F)cccc2Cl)c1 [Compound 29] | + (0-1 = +) |
| Clc1ccccc1CNc1cccc(NCc2ccccc2Cl)c1 [Compound 32] | + (0-1 = +) |
| Fc1cccc(F)c1CNc1cccc(NCc2c(F)cccc2F)c1 [Compound 34, N,N′-bis-(2,6-difluorobenzyl)-benzene-1,3-diamine] | + (0-1 = +) |
| CC(C)(C)c1ccc(CNc2cccc(NCc3ccc(C(C)(C)C)cc3)c2)cc1 [Compound 36, N,N′-bis-(4-tert-butylbenzyl)-benzene-1,3-diamine] | ++ (>1-1.5 = ++) |
| Fc1ccc(CNc2cccc(NCc3ccc(F)cc3Cl)c2)c(Cl)c1 [Compound 37, N,N′-bis-(2-chloro-4-fluorobenzyl)-benzene-1,3-diamine] | ++ (>1-1.5 = ++) |
| FC(F)(F)c1ccccc1CNc1cccc(NCc2ccccc2C(F)(F)F)c1 [Compound 39] | ++ (>1-1.5 = ++) |
| CC(C)(C)c1ccc(CNc2cccc(NCc3csc4ccc(Cl)cc34)c2)cc1 [Compound 40] | + (0-1 = +) |
| O=[N+]([O-])c1ccc(CNc2cccc(NCc3ccc(F)cc3)c2)o1 [Compound 46] | ++ (>1-1.5 = ++) |
| Fc1cccc(F)c1CNc1cccc(NCc2csc3ccc(Cl)cc23)c1 [Compound 49, N-(5-chlorobenzo[b]thiophen-3-ylmetbyl)-N′-(2,6-difluorobenzyl)-benzene-1,3-diamine] | + (0-1 = +) |
| CS(=O)(=O)c1ccc(CNc2cccc(NCc3c(F)cccc3F)c2)cc1 [Compound 50, N-(2,6-difluorobenzyl)-N′-(4-methanesulfonylbenzyl)-benzene-1,3-diamine] | + (0-1 = +) |
| CS(=O)(=O)c1ccc(CNc2cccc(NCc3cc(F)cc(F)c3)c2)cc1 [Compound 51, N-(3,5-difluorobenzyl)-N′-(4-methanlesulfonylbenzyl)-benzene-1,3-diamine] | + (0-1 = +) |
| Fc1ccc(CNc2cccc(NCc3ccc(-c4csnn4)cc3)c2)c(F)c1 [Compound 52, N-(2,4-difluorobenzyl)-N′-(4-[1,2,3]thiadiazol-4-yl-benzyl)-benzene-1,3-diamine] | + (0-1 = +) |

More lines, now with the values ahead:

| Em effect: ratio of the compound effect compared to the maximal effect of NS004 | SMILES |
| --- | --- |
| + (0-1 = +) | FC(F)(F)c1cc(NCc2ccc3ccccc3c2)cc(NCc2ccc3ccccc3c2)c1 [Compound 4] |
| + (0-1 = +) | O=[N+]([O-])c1ccc(CNc2cc(NCc3ccc4ccccc4c3)cc(C(F)(F)F)c2)cc1 [Compound 8] |
| + (0-1 = +) | c1ccc(CNc2cccc(NCc3ccccc3)c2)cc1 [Compound 9, N,N′-Dibenzylbenzene-1,3-diamine] |
| + (0-1 = +) | Cc1cc(NCc2ccc3ccccc3c2)ccc1NCc1ccc2ccccc2c1 [Compound 16] |
| + (0-1 = +) | Cc1cc(NCc2cccc(Cl)c2)ccc1NCc1cccc(Cl)c1 [Compound 17] |
| + (0-1 = +) | Cc1cc(NCc2ccc(Br)cc2)ccc1NCc1ccc(Br)cc1 [Compound 18] |
| + (0-1 = +) | Clc1cc(NCc2ccc(Br)cc2)ccc1NCc1ccccc1 [Compound 19] |
| + (0-1 = +) | Clc1cccc(CNc2ccc(NCc3ccccc3)c(Cl)c2)c1 [Compound 20, N′-Benzyl-2-chloro-N^4-(3-chlorobenzyl)-benzene-1,4-diamine] |
| + (0-1 = +) | Clc1cccc(CNc2ccc(NCc3ccc(Br)cc3)c(Cl)c2)c1 [Compound 21, N^1-(4-Bromobenzyl)-2-chloro-N^4-(3-chlorobenzyl)-benzene-1,4-diamine] |
| + (0-1 = +) | Clc1cccc(CNc2ccc(NCc3ccc4ccccc4c3)c(Cl)c2)c1 [Compound 22] |
| + (0-1 = +) | O=[N+]([O-])c1ccc(CNc2ccc(NCc3ccc(Br)cc3)cc2Cl)cc1 [Compound 23] |
| + (0-1 = +) | O=[N+]([O-])c1ccc(CNc2ccc(NCc3cccc(Cl)c3)cc2Cl)cc1 [Compound 24] |
| + (0-1 = +) | O=[N+]([O-])c1ccc(CNc2ccc(NCc3ccc4ccccc4c3)cc2Cl)cc1 [Compound 25] |
| + (0-1 = +) | Fc1ccc(CNc2cccc(NCc3ccc(F)cc3)c2)cc1 [Compound 26, N,N′-bis-(4-fluorobenzyl)-benzene-1,3-diamine] |
| + (0-1 = +) | N#Cc1ccccc1-c1ccc(CNc2cccc(NCc3ccc(-c4ccccc4C#N)cc3)c2)cc1 [Compound 30] |
| + (0-1 = +) | COc1cccc(CNc2cccc(NCc3cccc(OC)c3)c2)c1 [Compound 33] |
| + (0-1 = +) | CC(C)(C)c1ccc(CNc2cccc(NCc3ccc(-c4csnn4)cc3)c2)cc1 [Compound 41] |
| + (0-1 = +) | CC(C)(C)c1ccc(CNc2cccc(NCc3cccc(Cl)c3)c2)cc1 [Compound 42, N-(4tert-butylbenzyl)-N′-(3-chloro-benzyl)-benzene-1,3-diamine] |
| + (0-1 = +) | CC(C)(C)c1ccc(CNc2cccc(NCc3ccc(S(C)(=O)=O)cc3)c2)cc1 [Compound 43, N-(4-tert-butylbenzyl)-N′-(4-methanesulfonylbenzyl)-benzene-1,3-diamine] |
| + (0-1 = +) | Fc1cccc(CNc2cccc(NCc3ccc(-c4csnn4)cc3)c2)c1 [Compound 44, N-(3-fluoro-benzyl)-N′-(4-[1,2,3]thiadiazol-4-yl-benzyl)-benzene-1,3-diamine] |
| + (0-1 = +) | CS(=O)(=O)c1ccc(CNc2cccc(NCc3cccc(F)c3)c2)cc1 [Compound 45] |
| ++ (>1-1.5 = ++) | Clc1cccc(CNc2cccc(NCc3ccccc3Cl)c2)c1 [Compound 47] |
| + (0-1 = +) | Fc1cccc(CNc2cccc(NCc3ccccc3Cl)c2)c1 [Compound 48] |
